Data: PubChem BioAssay AID2060502 (Molecular Pharmacology Branch, DTP, NCI, 2025)

Test system: 885724-159-R-J1-PDC complex spheroid viability
Experiment: Anticancer human tumor 885724-159-R-J1-PDC patient-derived pancreatic adenocarcinoma cell line growth inhibition [GQUAD]
Details: for IC50: curve of first compound; for viability, T/C: stronger effect = lower value
In short: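 Multi-cell-type spheroids of tumor cells with HUVEC and mesenchymal stem cells, treated with drug combinations. Concentrations descend in half-log steps from near clinical Cmax, or from 10 microM where Cmax is unknown; viability read-out.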
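Also: spheroids exposed to agents for seven days before readout.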
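For viability, T/C in this document: percent of vehicle control viability where 100% = DMSO wells.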

For `CC(=O)O[C@H]1C(=O)[C@@]2(C)[C@H]([C@H](OC(=O)c3ccccc3)[C@]3(O)C[C@H](OC(=O)[C@H](O)[C@@H](NC(=O)c4ccccc4)c4ccccc4)C(C)=C1C3(C)C)[C@]1(OC(C)=O)CO[C@@H]1C[C@@H]2O` + Cc1[nH]c2ccc(F)cc2c1-c1nc2c3cccnc3c3ncccc3c2[nH]1, the IC50 (second compound 0.0316 µM) was over 10 µM, the IC50 (second compound 0.1 µM) was over 10 µM and the IC50 (second compound 0.316 µM) was over 10 µM. The IC50 (second compound 1 µM) was over 10 µM, the IC50 (second compound 3.16 µM) was under 0.0316 µM and the IC50 (second compound 10 µM) was over 10 µM. It also gave a viability, T/C (second compound 0.0316 µM, first compound 0.0316 µM) of 102%, a viability, T/C (second compound 0.0316 µM, first compound 0.1 µM) of 76.5% and a viability, T/C (second compound 0.0316 µM, first compound 0.316 µM) of 85.7%. The viability, T/C (second compound 0.0316 µM, first compound 1 µM) was 91.4%, the viability, T/C (second compound 0.0316 µM, first compound 3.16 µM) was 81.6% and the viability, T/C (second compound 0.0316 µM, first compound 10 µM) was 83.3%. For the same molecule, the viability, T/C (second compound 0.1 µM, first compound 0.0316 µM) was 112%, the viability, T/C (second compound 0.1 µM, first compound 0.1 µM) was 83.2% and the viability, T/C (second compound 0.1 µM, first compound 0.316 µM) was 78%. The viability, T/C (second compound 0.1 µM, first compound 1 µM) was 84.8%, the viability, T/C (second compound 0.1 µM, first compound 3.16 µM) was 86.5% and the viability, T/C (second compound 0.1 µM, first compound 10 µM) was 87%. The viability, T/C (second compound 0.316 µM, first compound 0.0316 µM) was 87.8%, the viability, T/C (second compound 0.316 µM, first compound 0.1 µM) was 77.8% and the viability, T/C (second compound 0.316 µM, first compound 0.316 µM) was 82.8%. It also gave a viability, T/C (second compound 0.316 µM, first compound 1 µM) of 79.6%, a viability, T/C (second compound 0.316 µM, first compound 3.16 µM) of 80.8% and a viability, T/C (second compound 0.316 µM, first compound 10 µM) of 80.2%. It also gave a viability, T/C (second compound 1 µM, first compound 0.0316 µM) of 69.5%, a viability, T/C (second compound 1 µM, first compound 0.1 µM) of 54.7% and a viability, T/C (second compound 1 µM, first compound 0.316 µM) of 61.8%. The viability, T/C (second compound 1 µM, first compound 1 µM) was 51.1%, the viability, T/C (second compound 1 µM, first compound 3.16 µM) was 78.6% and the viability, T/C (second compound 1 µM, first compound 10 µM) was 55.5%. For the same molecule, the viability, T/C (second compound 3.16 µM, first compound 0.0316 µM) was 16.7%, the viability, T/C (second compound 3.16 µM, first compound 0.1 µM) was 6.91% and the viability, T/C (second compound 3.16 µM, first compound 0.316 µM) was 7.17%. The viability, T/C (second compound 3.16 µM, first compound 1 µM) was 8.73%, the viability, T/C (second compound 3.16 µM, first compound 3.16 µM) was 10% and the viability, T/C (second compound 3.16 µM, first compound 10 µM) was 5.61%. The viability, T/C (second compound 10 µM, first compound 0.0316 µM) was 56.7%, the viability, T/C (second compound 10 µM, first compound 0.1 µM) was 53.2% and the viability, T/C (second compound 10 µM, first compound 0.316 µM) was 54.5%. The viability, T/C (second compound 10 µM, first compound 1 µM) was 55%, the viability, T/C (second compound 10 µM, first compound 3.16 µM) was 68.5% and the viability, T/C (second compound 10 µM, first compound 10 µM) was 59.2%.
